From PubChem BioAssay AID1996
In brackets after ≈: the same amount, converted by molar mass.

Details: buffer; pH 7.4; 200.0 µM

Row | Compound | solubility kinetic
1 | O=C(Cn1cc([N+](=O)[O-])cn1)NCCc1nc2ccccc2[nH]1 | > 47.1 µg/mL
2 | O=C(Nc1cccc2cccnc12)c1cccc(Cl)c1 | 1.5 µg/mL (≈ 5.31 µM)
3 | O=c1c2ccccc2nc(Cc2ccccc2)n1-c1cccc(O)c1 | 6 µg/mL (≈ 18.3 µM)
4 | COC(=O)c1cc(NC(=O)c2cccc(F)c2)cc(C(=O)OC)c1 | 0.7 µg/mL (≈ 2.11 µM)
5 | CCN(C(=O)Cc1c(C(=O)O)[nH]c2ccccc12)c1ccc(OC)cc1 | > 52.9 µg/mL
6 | O=C1CN=C(c2cc([N+](=O)[O-])ccc2Cl)c2cc([N+](=O)[O-])ccc2N1 | 1.6 µg/mL (≈ 4.44 µM)
7 | O=C(CN1C(=O)c2ccc([N+](=O)[O-])cc2C1=O)NCc1ccc(C(=O)O)cc1 | > 57.5 µg/mL
8 | C=CCNC(=O)C(=O)NCCCN1CCOCC1 | > 38.3 µg/mL
9 | COc1cccc(NC(=O)Nc2nc(SC(C)(C)C)ns2)c1 | 1.1 µg/mL (≈ 3.25 µM)
10 | CN(CC(=O)Nc1cccnc1Cl)S(=O)(=O)c1ccc(Cl)cc1 | 24.9 µg/mL (≈ 66.5 µM)
11 | O=C(CSc1ccc(Br)cc1)NC1CCCCCC1 | 3.4 µg/mL (≈ 9.93 µM)
12 | CC(C)CNC(=S)N1CCC(Cc2ccccc2)CC1 | 9.3 µg/mL (≈ 32 µM)
13 | CSc1ccc(Cl)c(C(=O)N2CCOc3ccccc32)c1 | 13.5 µg/mL (≈ 42.2 µM)
14 | NC(=O)COn1c(SCC(N)=O)nc2ccccc2c1=O | > 46.2 µg/mL
15 | O=C(O)C1CCCCN1C(=O)c1cc2c(s1)CCCCC2 (centres undefined) | > 46.1 µg/mL
16 | O=C(Cn1cnc([N+](=O)[O-])c1)Nc1ccc(F)c(Cl)c1 | 5 µg/mL (≈ 16.7 µM)
17 | O=S(=O)(c1ccc(F)cc1)N1CCc2ccccc21 | 18.9 µg/mL (≈ 68.2 µM)
18 | CN(Cc1ccc2c(c1)OCCO2)C(=O)CN1C(=O)NC2(CCCCC2)C1=O | 50.2 µg/mL (≈ 130 µM)
19 | CCCCCCOc1ccc(C(=O)NCCCn2ccnc2)cc1 | > 49.4 µg/mL
20 | COc1ccc([N+](=O)[O-])cc1N1C(=O)c2cccnc2C1=O | > 44.9 µg/mL

Row | Compound | solubility kinetic
21 | CC1CN(Cc2ccccc2)C(C)CC1O (centres undefined) | > 32.9 µg/mL
22 | COc1ccc(NC(=O)COC(=O)C2=COCCO2)cc1OC | > 48.5 µg/mL
23 | O=C1Nc2ccc(F)cc2C12OCCO2 | 31.3 µg/mL (≈ 150 µM)
24 | COc1cccc(C(=O)Nc2ccc3[nH]c(=O)[nH]c3c2)c1OC | 27.7 µg/mL (≈ 88.4 µM)
25 | CN(C(=O)Nc1cnc2ccccc2c1)c1ccccc1 | > 41.6 µg/mL
26 | Cc1cc2c3c(c1)C(C)CC(C)(C)N3C(=O)C2=C(C#N)C#N (centres undefined) | 0.6 µg/mL (≈ 2.06 µM)
27 | O=C(C1CC2C=CC1C2)N1CCN(c2ccccc2)CC1 (centres undefined) | > 42.4 µg/mL
28 | CN(Cc1ccccc1)S(=O)(=O)c1ccc(N2CCOCC2)nc1 | 2.5 µg/mL (≈ 7.2 µM)
29 | Cc1ccc(C(=O)NCC(=O)NCC(c2cccs2)N(C)C)cc1C (centres undefined) | > 53.9 µg/mL
30 | S=C1Nc2ccccc2Sc2ccccc21 | 1 µg/mL (≈ 4.11 µM)
31 | CC(C)c1ccc(-n2ccnc2SCC(=O)O)cc1 | > 41.5 µg/mL
32 | O=C(NCc1ccc2c(c1)OCO2)Nc1cccc(Cl)c1 | 1.3 µg/mL (≈ 4.27 µM)
33 | Cc1ccnc(SCC(=O)Nc2cccc(S(=O)(=O)N3CCOCC3)c2)n1 | > 61.3 µg/mL
34 | NC(=O)c1oc2ccccc2c1NC(=O)Cc1ccccc1 | 43.7 µg/mL (≈ 148 µM)
35 | O=C(COC(=O)c1cccc(C(F)(F)F)c1)NC(=O)NC1CCCC1 | 5.2 µg/mL (≈ 14.5 µM)
36 | COc1cc(OC)c(C(=O)OC(C)C(=O)NCc2ccc3c(c2)OCO3)cc1OC (centres undefined) | > 62.6 µg/mL
37 | CCN(Cc1ccccc1)Cc1ccc(OCc2ccccc2)c(OC)c1 | 10.3 µg/mL (≈ 28.5 µM)
38 | CCCCNC(=S)Nc1ccc(Oc2ccccc2)cc1 | 6.5 µg/mL (≈ 21.6 µM)
39 | CN(C)CCN1CC(O)=C(c2nc3ccccc3s2)C1=N | 31.5 µg/mL (≈ 104 µM)
40 | O=C(Nc1ccon1)Nc1ccccc1C(F)(F)F | > 40.7 µg/mL

Row | Compound | solubility kinetic
41 | COc1ccccc1N1CCN(C(=O)c2cc(C(C)(C)C)oc2C)CC1 | 41.8 µg/mL (≈ 117 µM)
42 | COc1ccc(/C=C/C(=O)OCC(=O)NCCc2ccccc2)c(OC)c1 | 8.5 µg/mL (≈ 23 µM)
43 | O=C(NCC(c1ccco1)N1CCCC1)c1cc(S(=O)(=O)N2CCCCC2)ccc1Cl (centres undefined) | > 69.9 µg/mL
44 | C=CCC1(Nc2ccccc2)CC(C)N(C)CC1C.O=C(O)C(=O)O (centres undefined) | > 52.3 µg/mL
45 | O=C(CSc1nc2ccccc2[nH]1)NCc1ccccc1 | 33.7 µg/mL (≈ 113 µM)
46 | CCCC(=O)OCC(=O)c1[nH]c(C)c(C(C)=O)c1C | > 39.8 µg/mL
47 | CC1CCC(NC(=O)CSc2nncs2)CC1 (centres undefined) | > 40.7 µg/mL
48 | O=C(COc1ccc(Cl)cc1[N+](=O)[O-])N1CCCCC1 | > 44.8 µg/mL
49 | Cc1cccc(NC(=O)CN2CCSc3ccccc32)c1 | 5.2 µg/mL (≈ 17.4 µM)
50 | O=C(c1cc2c(s1)CCCC2)N1CCN(c2ccccc2)CC1 | 1.5 µg/mL (≈ 4.59 µM)
51 | Cc1ccc(C2=NOC3(CC(=O)N(c4ccccc4)C3=O)C2)cc1 (centres undefined) | 45.2 µg/mL (≈ 141 µM)
52 | O=C(CC1CCCC1)Nc1ccc(Cl)c(S(=O)(=O)N2CCOCC2)c1 | 54.7 µg/mL (≈ 141 µM)
53 | COc1cc(C(=O)NNC(=O)C2CCCC2)cc(OC)c1OC | > 48.4 µg/mL
54 | CCc1cc2c(=O)c(-c3nc(C)cs3)coc2cc1O | 1.2 µg/mL (≈ 4.18 µM)
55 | Cc1ccc(SCC(=O)NC(=O)NC(C)C)c(C)c1 | 20 µg/mL (≈ 71.3 µM)
56 | Cc1cc(C(=O)NCc2ccccc2F)c2ccccc2n1 | 9.3 µg/mL (≈ 31.6 µM)
57 | CCOc1ccc(S(=O)(=O)NCCCl)cc1 | > 39.6 µg/mL
58 | COc1cccc(C=O)c1OCCCOc1cccc2cccnc12 | 34.9 µg/mL (≈ 103 µM)
59 | COc1ccc(CCNC(=O)C(=O)N2CCCC2)cc1OC | 39.7 µg/mL (≈ 130 µM)
